Experiment [1] relates to genotype 1b-Con1 subgenomic replicon cell line. In words: microbe, parasite or virus in culture. It counts as cell-based, HCV. The settings on record: Hepatitis C virus, 72 h, read-out: EC50 1b.
Experiment [2] concerns genotype 1a-H77 subgenomic replicon cell line. In words: microbe, parasite or virus in culture. It is filed as cell-based, HCV. The note with it: Hepatitis C virus, 72 h, read-out: EC50 1a.
Experiment [3] addresses T1, HCV polymerase 1B (Δ21 NS5B) (Hepatitis C virus genotype 1b, UniProt P26663).
T1 construct: 20 to 50nM Δ21 NS5B
The experiment is described as follows: biochemical. On the procedure: (§1) Either two-fold serial dilutions (fractional inhibition assay) or a narrower range of dilutions spanning the IC50 of the inhibitor (tight binding assay) of the inhibitors were incubated with 20mM Tris-Cl pH 7.4, 2 mM MnCl2, 1 mM dithiothreitol, 1 mM ethylene diamine tetraacetic acid (EDTA), 60 to 125μM GTP and 20 to 50nM Δ21 NS5B (HCV Strain 1B (BK, Genbank accession number M58335, or H77, Genbank accession number AF011751)) for 15min at room temperature. The reaction was initiated by the addition of 20μM CTP, 20μM ATP, 1μM ^3H-UTP (10mCi/umol), 5nM template RNA and 0.1 U/μl RNase inhibitor (RNasin, Promega), and allowed to proceed for 2 to 4h at room temperature. Reaction volume was 50μl. The reaction was terminated by the addition of 1 volume of 4mM spermine in 10mM Tris-Cl pH 8.0, 1mM EDTA. After incubation for at least 15 min at room temperature, the precipitated RNA was captured by filtering through a GF/B filter (Millipore) in a 96 well format. The filter plate was washed three times with 200μl each of 2mM spermine, 10mM Tris-Cl pH 8.0, lmM EDTA, and 2 times with ethanol. After air-drying, 30μl of Microscint 20 scintillation cocktail (Packard) was added to each well, and the retained cpm were determined by scintillation counting. […] Retained cpm were plotted vs. inhibitor concentration and fit to equation 1 using non-linear regression (ref. 1) to obtain the IC50 values: Retained cpm=A[sqrt{(IC50+It−Et)^2+4*IC50*Et}−([…])]
Ref. Morrison, J. F. and S. R. Stone. 1985. Approaches to the study and analysis of the inhibition of enzymes by slow- and tight-binding inhibitors. Comments Mol. Cell. Biophys. 2: 347-368.
(§2) The sequence of the template RNA used was: 5′-[…]-3′

The target in experiment [4] is T2, HCV polymerase 1A (Δ21 NS5B) (Hepatitis C virus genotype 1a, UniProt P27958).
T2 construct: 20 to 50nM Δ21 NS5B
The experiment is described as follows: HCV Polymerase Inhibition Assay (1a). It counts as biochemical. The protocol:
as §1, with “The” for “Either two-fold serial dilutions (fractional inhibition assay) or a narrower range of dilutions spanning the IC50 of the inhibitor (tight binding assay) of the inhibitors were incubated with 20mM Tris-Cl pH 7.4, 2 mM MnCl2, 1 mM dithiothreitol, 1 mM ethylene diamine tetraacetic acid (EDTA), 60 to 125μM GTP and 20 to 50nM Δ21 NS5B (HCV Strain 1B (BK, Genbank accession number M58335, or H77, Genbank accession number AF011751)) for 15min at room temperature. The”
Ref. Morrison, J. F. and S. R. Stone. […] Approaches to the study and analysis of the inhibition of enzymes by slow- and tight-binding inhibitors. Comments Mol. Cell. Biophys.
as §2

T1 sequence (P26663 2420-2989, stated change not applied): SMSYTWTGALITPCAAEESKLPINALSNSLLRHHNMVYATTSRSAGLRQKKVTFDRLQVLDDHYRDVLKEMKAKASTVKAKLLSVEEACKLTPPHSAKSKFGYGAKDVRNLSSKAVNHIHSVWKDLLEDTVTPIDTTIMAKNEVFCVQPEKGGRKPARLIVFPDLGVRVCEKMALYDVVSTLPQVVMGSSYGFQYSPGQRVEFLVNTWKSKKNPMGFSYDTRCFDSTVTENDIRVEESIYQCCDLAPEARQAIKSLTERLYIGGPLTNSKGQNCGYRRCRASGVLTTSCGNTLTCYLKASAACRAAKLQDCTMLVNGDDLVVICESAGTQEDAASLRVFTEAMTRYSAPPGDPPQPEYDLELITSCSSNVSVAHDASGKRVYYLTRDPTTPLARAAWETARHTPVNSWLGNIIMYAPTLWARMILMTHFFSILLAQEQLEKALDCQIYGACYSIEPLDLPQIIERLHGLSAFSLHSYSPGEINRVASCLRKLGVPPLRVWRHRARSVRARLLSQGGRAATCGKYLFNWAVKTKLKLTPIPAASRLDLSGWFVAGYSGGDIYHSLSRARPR
T2 sequence (P27958 2421-2990, stated change not applied): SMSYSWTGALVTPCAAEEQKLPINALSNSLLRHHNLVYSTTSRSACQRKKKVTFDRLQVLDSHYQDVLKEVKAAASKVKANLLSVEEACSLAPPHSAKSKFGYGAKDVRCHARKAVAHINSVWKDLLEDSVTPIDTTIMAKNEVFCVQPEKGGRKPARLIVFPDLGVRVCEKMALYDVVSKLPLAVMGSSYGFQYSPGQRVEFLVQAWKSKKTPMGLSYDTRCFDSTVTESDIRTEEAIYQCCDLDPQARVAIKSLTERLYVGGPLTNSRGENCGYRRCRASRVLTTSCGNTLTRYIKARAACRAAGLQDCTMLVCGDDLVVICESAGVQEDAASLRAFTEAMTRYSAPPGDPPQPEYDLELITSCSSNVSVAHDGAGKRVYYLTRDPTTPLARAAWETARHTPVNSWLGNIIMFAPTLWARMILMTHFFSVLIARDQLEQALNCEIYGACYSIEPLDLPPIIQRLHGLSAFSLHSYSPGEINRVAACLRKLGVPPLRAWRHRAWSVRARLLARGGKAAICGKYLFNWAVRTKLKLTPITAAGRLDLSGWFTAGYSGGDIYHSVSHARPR

What is called EC50 is the concentration giving half of the maximal effect. Usually IC50 stands for the midpoint of a concentration-inhibition curve. In the case of `COc1c(I)cc(-n2ccc(=O)[nH]c2=O)cc1-c1ccc2cc(NS(C)(=O)=O)ccc2c1` [IB-L0-2.57, N-(6-(5-(2,4-dioxo-3,4-dihydropyrimidin-1(2H)-yl)-3-iodo-2-methoxyphenyl)naphthalen-2-yl)methanesulfonamide], the half-maximal effective concentration (EC50) in experiment [1] was 10 to 100 nM; in experiment [2], 100 to 1000 nM. The 50% inhibitory concentration (IC50) in experiment [3] is 10 to 100 nM; in experiment [4] it was less than 10 nM.
Take `COc1c(-c2ccc3c(c2)CC[C@@]3(F)CNS(C)(=O)=O)cc(-n2ccc(=O)[nH]c2=O)cc1C(C)(C)C` [IB-L0-2.20, (S)-N-((5-(3-tert-butyl-5-(2,4-dioxo-3,4-dihydropyrimidin-1(2H)-yl)-2-methoxyphenyl)-1-fluoro-2,3-dihydro-1H-inden-1-yl)methyl)methanesulfonamide]: the results for the EC50 in experiment [1] and in experiment [2] were 10 to 100 nM and 100 to 1000 nM, respectively. Also, the concentration for half-maximal inhibition (IC50) in experiment [3] was 10 to 100 nM; in experiment [4], less than 10 nM.
On to `COc1c(N2Cc3ccc(NS(C)(=O)=O)cc3C2)cc(-n2ccc(=O)[nH]c2=O)cc1C(C)(C)C` [IB-L0-2.79, N-(2-(3-tert-butyl-5-(2,4-dioxo-3,4-dihydropyrimidin-1(2H)-yl)-2-methoxyphenyl)isoindolin-5-yl)methanesulfonamide], for which the concentration giving a half-maximal response (EC50) in experiment [1] and in experiment [2] was 100 to 1000 nM each time. Further, the half-maximal inhibitory concentration (IC50) in experiment [3] and in experiment [4] was 10 to 100 nM throughout.
`COc1c(-c2nc3cc(NS(C)(=O)=O)ccc3o2)cc(N2CCC(=O)NC2=O)cc1C(C)(C)C` [IA-L0-2.8, N-(2-(3-tert-butyl-5-(2,4-dioxotetrahydropyrimidin-1(2H)-yl)-2-methoxyphenyl)benzo[d]oxazol-5-yl)methanesulfonamide]: the concentration giving a half-maximal response (EC50) lay in the range of 10 to 100 nM in experiment [1] and 100 to 1000 nM in experiment [2]. Further, the IC50 in experiment [3] and in experiment [4] was 10 to 100 nM in each case.
As to `COc1c(-c2ccc3c(c2)CC[C@]3(F)CNS(C)(=O)=O)cc(-n2ccc(=O)[nH]c2=O)cc1C(C)(C)C` [IB-L0-2.10, (R)-N-((5-(3-tert-butyl-5-(2,4-dioxo-3,4-dihydropyrimidin-1 (2H)-yl)-2-methoxyphenyl)-1-fluoro-2,3-dihydro-1H-inden-1-yl)methyl)methanesulfonamide], the EC50 in experiment [1] and in experiment [2] was less than 10 nM in each case. For the same compound, the IC50 in experiment [3] is 10 to 100 nM; in experiment [4], less than 10 nM.
`COc1c(-c2nc3ccc([N+](=O)[O-])cc3o2)cc(N2CCC(=O)NC2=O)cc1C(C)(C)C` [IA-L0-2.6, 1-(3-tert-butyl-4-methoxy-5-(6-nitrobenzo[d]oxazol-2-yl)phenyl) dihydropyrimidine-2,4(1H,3H)-dione]: the EC50 in experiment [1] and in experiment [2] was more than 1000 nM in each case. In addition, the concentration for half-maximal inhibition (IC50) in experiment [3] and in experiment [4] was 100 to 1000 nM in each case.
Turning to `COc1c(-c2ccc3c(c2)CNC3=O)cc(-n2ccc(=O)[nH]c2=O)cc1C(C)(C)C` [IB-L0-2.30, 1-(3-tert-butyl-4-methoxy-5-(1-oxoisoindolin-5-yl)phenyl)-pyrimidine-2,4(1H,3H)-dione], the values for the EC50 in experiment [1] and in experiment [2] were 10 to 100 nM and 100 to 1000 nM, respectively. Moreover, the concentration for half-maximal inhibition (IC50) in experiment [3] and in experiment [4] was 10 to 100 nM each time.
Regarding `COc1c(-c2ccc3nc(N)sc3c2)cc(-n2ccc(=O)[nH]c2=O)cc1C(C)(C)C` [IB-L0-2.27, 1-(3-(2-aminobenzo[d]thiazol-6-yl)-5-tert-butyl-4-methoxy-phenyl)pyrimidine-2,4(1H,3H)-dione], the EC50 in experiment [1] lay in the range of 10 to 100 nM; in experiment [2] it was 100 to 1000 nM. Moreover, the IC50 in experiment [3] and in experiment [4] was 10 to 100 nM in each case.
Take `COc1ccc2cc(-c3cc(-n4ccc(=O)[nH]c4=O)cc(C(C)(C)C)c3OC)ccc2c1` [IB-L0-2.2, 1-(3-tert-butyl-4-methoxy-5-(6-methoxynaphthalen-2-yl)phenyl)pyrimidine-2,4(1H,3H)-dione]: the EC50 in experiment [1] and in experiment [2] was more than 1000 nM throughout. In addition, the IC50 in experiment [3] and in experiment [4] was 100 to 1000 nM in each case.
In the case of `COc1c(-c2ccc3cc(NS(C)(=O)=O)ccc3c2)cc(-n2ccc(=O)[nH]c2=O)cc1C(C)(C)C` [IB-L0-2.3, N-(6-(3-tert-butyl-5-(2,4-dioxo-3,4-dihydropyrimidin-1(2H)-yl)-2-methoxyphenyl)naphthalen-2-yl)methanesulfonamide], the EC50 in experiment [1] and in experiment [2] was less than 10 nM in each case. For the same compound, the half-maximal inhibitory concentration (IC50) in experiment [3] and in experiment [4] was less than 10 nM each time.
Regarding `COC(=O)C(C)(C)c1cc(-n2ccc(=O)[nH]c2=O)cc(-c2ccc3cc(NS(C)(=O)=O)ccc3c2)c1OC` [IB-L0-2.70, methyl 2-(5-(2,4-dioxo-3,4-dihydropyrimidin-1(2H)-yl)-2-methoxy-3-(6-(methylsulfonamido)naphthalen-2-yl)phenyl)-2-methylpropanoate], the EC50 in experiment [1] was 100 to 1000 nM; in experiment [2] it was more than 1000 nM. Besides, the IC50 in experiment [3] fell in the range of 100 to 1000 nM; in experiment [4], 10 to 100 nM.
For the compound `COc1c(-c2ccc3nc(Cl)sc3c2)cc(-n2ccc(=O)[nH]c2=O)cc1C(C)(C)C` [IB-L0-2.38, 1-(3-tert-butyl-5-(2-chlorobenzo[d]thiazol-6-yl)-4-methoxyphenyl)pyrimidine-2,4(1H,3H)-dione], the EC50 in experiment [1] and in experiment [2] was more than 1000 nM each time. Moreover, the IC50 in experiment [3] lay in the range of 10 to 100 nM; in experiment [4], 100 to 1000 nM.
With `COCC(C)(C)c1cc(-n2ccc(=O)[nH]c2=O)cc(-c2ccc3cc(NS(C)(=O)=O)ccc3c2)c1OC` [IB-L0-2.66, N-(6-(5-(2,4-dioxo-3,4-dihydropyrimidin-1(2H)-yl)-2-methoxy-3-(1-methoxy-2-methylpropan-2-yl)phenyl)naphthalen-2-yl)methanesulfonamide], the concentration giving a half-maximal response (EC50) in experiment [1] was 10 to 100 nM; in experiment [2] it was 100 to 1000 nM. Also, the IC50 in experiment [3] and in experiment [4] was 10 to 100 nM each time.
For the compound `COc1c(-c2ccc3c(c2)CCN3S(C)(=O)=O)cc(-n2ccc(=O)[nH]c2=O)cc1C(C)(C)C` [IB-L0-2.32, 1-(3-tert-butyl-4-methoxy-5-(1-(methylsulfonyl)indolin-5-yl)phenyl)pyrimidine-2,4(1H,3H)-dione], the figures for the EC50 in experiment [1] and in experiment [2] were 10 to 100 nM and 100 to 1000 nM, respectively. Further, the IC50 in experiment [3] and in experiment [4] was 10 to 100 nM in each case.
`COc1c(-c2cccc(Cl)c2)cc(-n2ccc(=O)[nH]c2=O)cc1-c1ccc2cc(NS(C)(=O)=O)ccc2c1` [IB-L0-2.74, N-(6-(3′-chloro-5-(2,4-dioxo-3,4-dihydropyrimidin-1(2H)-yl)-2-methoxybiphenyl-3-yl)naphthalen-2-yl)methanesulfonamide]: the concentration giving a half-maximal response (EC50) in experiment [1] was 100 to 1000 nM; in experiment [2] it was more than 1000 nM. Also, the 50% inhibitory concentration (IC50) in experiment [3] and in experiment [4] was 100 to 1000 nM each time.
Turning to `COc1c(-c2ccc3cc(NS(C)(=O)=O)ccc3c2)cc(-n2ccc(=O)[nH]c2=O)cc1-c1ccc(C)s1` [IB-L0-2.73, N-(6-(5-(2,4-dioxo-3,4-dihydropyrimidin-1(2H)-yl)-2-methoxy-3-(5-methylthiophen-2-yl)phenyl)naphthalen-2-yl)methanesulfonamide], the concentration giving a half-maximal response (EC50) in experiment [1] and in experiment [2] was 100 to 1000 nM each time. For the same compound, the 50% inhibitory concentration (IC50) in experiment [3] and in experiment [4] was 100 to 1000 nM each time.
`COc1c(-c2ccc3nc(NS(C)(=O)=O)sc3c2)cc(-n2ccc(=O)[nH]c2=O)cc1C(C)(C)C` [IB-L0-2.28, N-(6-(3-tert-butyl-5-(2,4-dioxo-3,4-dihydropyrimidin-1(2H)-yl)-2-methoxyphenyl)benzo[d]thiazol-2-yl)methanesulfonamide]: the half-maximal effective concentration (EC50) in experiment [1] is 100 to 1000 nM; in experiment [2] it was more than 1000 nM. Moreover, the 50% inhibitory concentration (IC50) in experiment [3] and in experiment [4] was 10 to 100 nM throughout.

The values are drawn from patent publication US8501238B2, “Anti-infective agents and uses thereof” (priority 2007, dated 2013).
